Test results taken from the kinase profiling compilation of Christmann-Franck et al. (2016).

Experiments:
Experiment in all cases: KINOMEscan competition binding
Conditions in all cases: compound 10.0 µM
[1] = target: MAPK11 (human) (UniProt Q15759)
[2] = target: PLK3 (human) (UniProt Q9H4B4)
[3] = target: PDPK1 (human) (UniProt O15530)
[4] = target: MAP3K4 (human) (UniProt Q9Y6R4)
[5] = target: RIOK1 (human) (UniProt Q9BRS2)
[6] = target: NUAK2 (human) (UniProt Q9H093)
[7] = target: TLK1 (human) (UniProt Q9UKI8)
[8] = target: CIT (human) (UniProt O14578)
[9] = target: TNK1 (human) (UniProt Q13470)
[10] = target: BLK (human) (UniProt P51451)
[11] = target: TNNI3K (human) (UniProt Q59H18)
[12] = target: DAPK3 (human) (UniProt O43293)
[13] = target: CAMK1G (human) (UniProt Q96NX5)
[14] = target: NTRK1 (human) (UniProt P04629)
[15] = target: TSSK1B (human) (UniProt Q9BXA7)
[16] = target: TNIK (human) (UniProt Q9UKE5)
[17] = tested on: EIF2AK4 KD2 (human), Q9P2K8 [S808G]
[18] = target: PKN1 (human) (UniProt Q16512)
[19] = target: PTK2B (human) (UniProt Q14289)
[20] = target: BRSK2 (human) (UniProt Q8IWQ3)
[21] = target: PTK6 (human) (UniProt Q13882)
[22] = tested on: FLT3 (human), P36888 [N841I]
[23] = target: MYLK (human) (UniProt Q15746)
[24] = target: MAP3K3 (human) (UniProt Q99759)
[25] = target: ANKK1 (human) (UniProt Q8NFD2)
[26] = target: ABL2 (human) (UniProt P42684)
[27] = target: MELK (human) (UniProt Q14680)
[28] = target: PIP4K2B (human) (UniProt P78356)
[29] = target: AURKC (human) (UniProt Q9UQB9)
[30] = target: CAMK4 (human) (UniProt Q16566)
[31] = target: CSNK1G3 (human) (UniProt Q9Y6M4)
[32] = target: NEK5 (human) (UniProt Q6P3R8)
[33] = target: STK35 (human) (UniProt Q8TDR2)
[34] = target: PRKCD (human) (UniProt Q05655)
[35] = target: CaMK1 (human) (UniProt Q14012)
[36] = target: WEE2 (human) (UniProt P0C1S8)
[37] = target: EPHA7 (human) (UniProt Q15375)
[38] = target: MAP4K5 (human) (UniProt Q9Y4K4)
[39] = target: CDK14 (human) (UniProt O94921)
[40] = target: CSNK1E (human) (UniProt P49674)

Sequence of PKN1 (human) (Q16512 whole entry, looked up): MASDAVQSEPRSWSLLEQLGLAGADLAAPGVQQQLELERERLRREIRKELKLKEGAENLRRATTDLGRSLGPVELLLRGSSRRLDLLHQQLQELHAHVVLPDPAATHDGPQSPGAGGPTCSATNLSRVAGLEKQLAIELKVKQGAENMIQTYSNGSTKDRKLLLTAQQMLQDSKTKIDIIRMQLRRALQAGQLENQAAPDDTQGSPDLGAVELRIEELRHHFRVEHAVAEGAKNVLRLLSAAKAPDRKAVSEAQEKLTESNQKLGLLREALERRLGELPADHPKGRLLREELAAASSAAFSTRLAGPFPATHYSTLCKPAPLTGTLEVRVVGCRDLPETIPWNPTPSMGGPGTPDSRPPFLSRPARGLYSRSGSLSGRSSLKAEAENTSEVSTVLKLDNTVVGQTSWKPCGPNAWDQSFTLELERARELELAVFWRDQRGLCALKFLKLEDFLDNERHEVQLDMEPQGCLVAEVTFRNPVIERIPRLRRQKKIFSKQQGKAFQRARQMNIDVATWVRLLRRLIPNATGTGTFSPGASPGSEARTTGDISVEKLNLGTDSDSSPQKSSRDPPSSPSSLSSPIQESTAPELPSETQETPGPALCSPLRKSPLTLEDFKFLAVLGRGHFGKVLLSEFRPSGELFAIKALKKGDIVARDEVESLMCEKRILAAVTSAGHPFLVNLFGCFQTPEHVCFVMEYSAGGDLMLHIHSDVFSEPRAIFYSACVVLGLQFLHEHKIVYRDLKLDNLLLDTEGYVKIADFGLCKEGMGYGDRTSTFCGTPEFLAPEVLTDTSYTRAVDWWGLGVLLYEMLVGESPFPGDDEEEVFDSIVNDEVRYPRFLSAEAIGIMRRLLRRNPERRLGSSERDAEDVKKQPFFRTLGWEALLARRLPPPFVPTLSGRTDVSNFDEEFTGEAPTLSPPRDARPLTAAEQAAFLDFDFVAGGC
Sequence of STK35 (human) (Q8TDR2 whole entry, looked up): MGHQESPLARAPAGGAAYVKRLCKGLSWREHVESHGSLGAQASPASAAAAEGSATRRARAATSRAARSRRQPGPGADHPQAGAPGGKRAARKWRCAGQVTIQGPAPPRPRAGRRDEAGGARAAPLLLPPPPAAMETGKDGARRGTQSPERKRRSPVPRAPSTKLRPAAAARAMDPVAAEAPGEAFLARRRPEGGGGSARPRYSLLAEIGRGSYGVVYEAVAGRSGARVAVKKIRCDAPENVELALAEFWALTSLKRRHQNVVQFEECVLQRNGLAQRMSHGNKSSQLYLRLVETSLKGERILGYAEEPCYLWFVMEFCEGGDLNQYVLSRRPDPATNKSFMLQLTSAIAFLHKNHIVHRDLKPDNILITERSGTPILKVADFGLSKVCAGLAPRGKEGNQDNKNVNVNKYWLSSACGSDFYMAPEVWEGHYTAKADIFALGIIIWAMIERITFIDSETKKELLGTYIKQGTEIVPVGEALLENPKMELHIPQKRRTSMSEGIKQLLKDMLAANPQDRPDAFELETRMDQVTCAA
Sequence of WEE2 (human) (P0C1S8 whole entry, looked up): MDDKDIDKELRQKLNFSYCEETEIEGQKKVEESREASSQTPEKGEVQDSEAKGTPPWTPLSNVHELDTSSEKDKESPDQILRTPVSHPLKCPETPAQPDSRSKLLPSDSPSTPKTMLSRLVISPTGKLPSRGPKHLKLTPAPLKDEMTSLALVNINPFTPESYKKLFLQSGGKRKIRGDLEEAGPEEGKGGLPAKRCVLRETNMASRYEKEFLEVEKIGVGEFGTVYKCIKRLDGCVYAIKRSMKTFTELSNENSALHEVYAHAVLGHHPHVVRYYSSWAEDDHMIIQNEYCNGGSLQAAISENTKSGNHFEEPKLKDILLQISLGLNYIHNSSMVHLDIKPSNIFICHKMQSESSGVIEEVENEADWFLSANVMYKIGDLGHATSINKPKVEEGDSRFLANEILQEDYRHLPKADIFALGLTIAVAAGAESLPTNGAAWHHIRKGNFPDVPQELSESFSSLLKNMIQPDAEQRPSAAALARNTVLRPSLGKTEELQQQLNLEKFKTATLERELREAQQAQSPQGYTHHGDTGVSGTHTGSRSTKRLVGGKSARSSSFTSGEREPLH
Sequence of PDPK1 (human) (O15530 whole entry, looked up): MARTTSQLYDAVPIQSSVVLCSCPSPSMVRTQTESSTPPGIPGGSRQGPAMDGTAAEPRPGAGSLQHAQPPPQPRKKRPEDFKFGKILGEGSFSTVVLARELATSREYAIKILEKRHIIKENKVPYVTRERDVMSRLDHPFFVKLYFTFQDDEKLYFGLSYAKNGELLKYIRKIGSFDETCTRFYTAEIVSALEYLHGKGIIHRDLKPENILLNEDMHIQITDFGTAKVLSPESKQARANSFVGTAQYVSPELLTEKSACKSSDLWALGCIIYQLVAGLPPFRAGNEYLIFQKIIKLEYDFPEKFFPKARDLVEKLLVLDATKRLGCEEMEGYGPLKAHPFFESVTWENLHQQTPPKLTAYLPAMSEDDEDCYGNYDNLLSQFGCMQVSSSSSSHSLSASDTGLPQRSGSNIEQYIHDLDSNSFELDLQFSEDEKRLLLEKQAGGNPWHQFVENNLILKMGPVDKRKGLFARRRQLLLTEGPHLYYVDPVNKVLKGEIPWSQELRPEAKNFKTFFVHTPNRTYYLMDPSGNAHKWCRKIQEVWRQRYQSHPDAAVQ
Sequence of CSNK1G3 (human) (Q9Y6M4 whole entry, looked up): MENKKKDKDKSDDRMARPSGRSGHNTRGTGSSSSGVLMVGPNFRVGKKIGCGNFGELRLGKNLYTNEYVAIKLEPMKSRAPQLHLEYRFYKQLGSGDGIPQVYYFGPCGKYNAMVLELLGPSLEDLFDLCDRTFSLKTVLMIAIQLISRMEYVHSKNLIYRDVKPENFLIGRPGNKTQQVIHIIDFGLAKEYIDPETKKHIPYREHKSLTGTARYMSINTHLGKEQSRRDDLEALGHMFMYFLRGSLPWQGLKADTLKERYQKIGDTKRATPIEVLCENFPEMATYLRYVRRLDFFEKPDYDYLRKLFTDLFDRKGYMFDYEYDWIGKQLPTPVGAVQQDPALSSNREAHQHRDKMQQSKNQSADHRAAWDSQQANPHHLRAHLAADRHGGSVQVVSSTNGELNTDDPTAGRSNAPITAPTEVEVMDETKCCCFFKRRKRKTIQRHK
Sequence of MAP3K3 (human) (Q99759 whole entry, looked up): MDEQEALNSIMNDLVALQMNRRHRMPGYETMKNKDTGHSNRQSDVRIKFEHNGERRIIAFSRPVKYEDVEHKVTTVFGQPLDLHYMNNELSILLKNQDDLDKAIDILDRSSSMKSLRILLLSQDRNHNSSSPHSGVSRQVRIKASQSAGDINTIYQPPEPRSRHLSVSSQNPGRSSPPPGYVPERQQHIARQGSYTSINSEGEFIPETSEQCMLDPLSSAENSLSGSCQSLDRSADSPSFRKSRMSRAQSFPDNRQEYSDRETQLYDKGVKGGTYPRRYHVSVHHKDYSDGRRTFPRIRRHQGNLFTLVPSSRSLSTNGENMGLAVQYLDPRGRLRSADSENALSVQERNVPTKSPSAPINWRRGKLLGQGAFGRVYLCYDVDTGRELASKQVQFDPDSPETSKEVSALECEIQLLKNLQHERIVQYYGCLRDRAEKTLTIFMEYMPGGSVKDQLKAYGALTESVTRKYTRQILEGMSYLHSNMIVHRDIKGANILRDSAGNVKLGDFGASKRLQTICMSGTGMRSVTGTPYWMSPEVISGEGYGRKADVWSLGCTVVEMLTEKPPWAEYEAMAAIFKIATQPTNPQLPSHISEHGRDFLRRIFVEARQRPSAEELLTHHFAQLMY
Sequence of BRSK2 (human) (Q8IWQ3 whole entry, looked up): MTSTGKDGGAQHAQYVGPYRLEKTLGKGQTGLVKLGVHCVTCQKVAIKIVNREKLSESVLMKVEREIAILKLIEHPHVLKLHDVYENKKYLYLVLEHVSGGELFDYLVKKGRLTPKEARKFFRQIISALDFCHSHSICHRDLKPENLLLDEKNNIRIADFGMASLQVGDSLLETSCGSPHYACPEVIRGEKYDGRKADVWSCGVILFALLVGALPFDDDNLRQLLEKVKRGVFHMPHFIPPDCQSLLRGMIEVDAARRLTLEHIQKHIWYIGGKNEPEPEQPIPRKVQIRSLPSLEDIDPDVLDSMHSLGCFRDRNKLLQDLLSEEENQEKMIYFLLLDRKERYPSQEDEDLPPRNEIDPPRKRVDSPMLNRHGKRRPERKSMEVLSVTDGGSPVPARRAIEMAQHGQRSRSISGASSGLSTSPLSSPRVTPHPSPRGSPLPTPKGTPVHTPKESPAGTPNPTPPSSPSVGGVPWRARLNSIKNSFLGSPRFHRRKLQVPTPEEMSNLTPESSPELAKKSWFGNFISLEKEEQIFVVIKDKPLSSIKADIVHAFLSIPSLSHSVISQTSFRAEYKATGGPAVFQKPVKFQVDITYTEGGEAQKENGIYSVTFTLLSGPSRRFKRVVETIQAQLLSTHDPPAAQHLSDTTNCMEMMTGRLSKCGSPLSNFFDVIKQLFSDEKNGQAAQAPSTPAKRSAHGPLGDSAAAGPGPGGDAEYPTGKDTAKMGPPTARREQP
Sequence of CAMK4 (human) (Q16566 whole entry, looked up): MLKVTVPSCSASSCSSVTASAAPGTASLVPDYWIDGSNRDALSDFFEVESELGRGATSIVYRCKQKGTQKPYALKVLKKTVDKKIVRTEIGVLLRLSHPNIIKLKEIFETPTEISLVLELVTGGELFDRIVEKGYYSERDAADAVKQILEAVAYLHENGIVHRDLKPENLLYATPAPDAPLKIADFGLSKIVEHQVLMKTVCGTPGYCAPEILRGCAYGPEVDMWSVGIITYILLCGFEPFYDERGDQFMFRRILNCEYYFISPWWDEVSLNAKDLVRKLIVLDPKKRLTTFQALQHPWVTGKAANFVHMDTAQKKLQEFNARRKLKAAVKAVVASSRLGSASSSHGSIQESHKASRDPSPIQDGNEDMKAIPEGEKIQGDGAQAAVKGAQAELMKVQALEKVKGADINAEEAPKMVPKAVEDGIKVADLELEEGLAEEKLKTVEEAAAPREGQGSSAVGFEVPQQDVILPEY

Row | SMILES | kinase still bound, per cent of control [1] | kinase still bound, per cent of control [2] | kinase still bound, per cent of control [3] | kinase still bound, per cent of control [4] | kinase still bound, per cent of control [5] | kinase still bound, per cent of control [6] | kinase still bound, per cent of control [7] | kinase still bound, per cent of control [8] | kinase still bound, per cent of control [9] | kinase still bound, per cent of control [10] | kinase still bound, per cent of control [11] | kinase still bound, per cent of control [12] | kinase still bound, per cent of control [13] | kinase still bound, per cent of control [15] | kinase still bound, per cent of control [16] | kinase still bound, per cent of control [17] | kinase still bound, per cent of control [18] | kinase still bound, per cent of control [19] | kinase still bound, per cent of control [20] | kinase still bound, per cent of control [21] | other results
1 | Nc1ccc(-c2ccc3ncc4ccc(=O)n(-c5cccc(C(F)(F)F)c5)c4c3c2)cn1 | 83% | 94% | 100% | 100% | 65% | 46% | 90% | 100% | 100% | 98% | 100% | 81% | 88% | 100% | 68% | 100% | 100% | 86% | 100% | 100% | kinase still bound, per cent of control [14]: 57%; kinase still bound, per cent of control [22]: 11%; kinase still bound, per cent of control [23]: 95%; kinase still bound, per cent of control [24]: 84%; kinase still bound, per cent of control [25]: 100%; kinase still bound, per cent of control [26]: 100%; kinase still bound, per cent of control [27]: 50%; kinase still bound, per cent of control [28]: 100%; kinase still bound, per cent of control [29]: 100%; kinase still bound, per cent of control [30]: 100%; kinase still bound, per cent of control [31]: 63%; kinase still bound, per cent of control [32]: 94%; kinase still bound, per cent of control [33]: 92%; kinase still bound, per cent of control [34]: 88%; kinase still bound, per cent of control [35]: 82%; kinase still bound, per cent of control [36]: 100%; kinase still bound, per cent of control [37]: 100%; kinase still bound, per cent of control [38]: 100%; kinase still bound, per cent of control [39]: 97%
2 | Cn1c(=O)n(-c2ccc(C(C)(C)C#N)cc2)c2c3cc(-c4cnc5ccccc5c4)ccc3ncc21 | 100% | 100% | 100% | 100% | 100% | 100% | 100% | 100% | 100% | 100% | 100% | 100% | 100% | 100% | 100% | 100% | 100% | 100% | 100% | 100% | kinase still bound, per cent of control [40]: 100%; kinase still bound, per cent of control [22]: 100%; kinase still bound, per cent of control [23]: 100%; kinase still bound, per cent of control [24]: 100%; kinase still bound, per cent of control [25]: 100%; kinase still bound, per cent of control [26]: 100%; kinase still bound, per cent of control [27]: 100%; kinase still bound, per cent of control [28]: 100%; kinase still bound, per cent of control [29]: 100%; kinase still bound, per cent of control [30]: 100%; kinase still bound, per cent of control [31]: 100%; kinase still bound, per cent of control [32]: 100%; kinase still bound, per cent of control [33]: 100%; kinase still bound, per cent of control [34]: 100%; kinase still bound, per cent of control [35]: 100%; kinase still bound, per cent of control [36]: 100%; kinase still bound, per cent of control [37]: 100%; kinase still bound, per cent of control [38]: 100%; kinase still bound, per cent of control [39]: 100%
3 | CCCS(=O)(=O)Nc1ccc(F)c(C(=O)c2c[nH]c3ncc(-c4ccc(Cl)cc4)cc23)c1F | 29% | 93% | 70% | 63% | 100% | 98% | 95% | 30% | 100% | 2.2% | 65% | 95% | 92% | 99% | 15% | 0.55% | 78% | 100% | 100% | 0.75% | kinase still bound, per cent of control [14]: 90%; kinase still bound, per cent of control [23]: 91%; kinase still bound, per cent of control [24]: 82%; kinase still bound, per cent of control [25]: 91%; kinase still bound, per cent of control [26]: 32%; kinase still bound, per cent of control [27]: 100%; kinase still bound, per cent of control [28]: 100%; kinase still bound, per cent of control [30]: 100%; kinase still bound, per cent of control [31]: 100%; kinase still bound, per cent of control [32]: 100%; kinase still bound, per cent of control [33]: 100%; kinase still bound, per cent of control [34]: 100%; kinase still bound, per cent of control [35]: 25%; kinase still bound, per cent of control [36]: 100%; kinase still bound, per cent of control [37]: 100%; kinase still bound, per cent of control [38]: 6.4%; kinase still bound, per cent of control [39]: 100%
